SMILES strings stand for the structures.

Data set [1] relates to healthy elderly Japanese male subjects. The settings on record: in vivo.
Description: (§2) This study was a randomized, open-label, parallel-group, repeated-dose study conducted at a single center.
(§3) We measured BT by the Ivy method [12] using a needle type of BD Microtainer Contact-Activated Lancet device (Becton, Dickinson and Company, USA). The incision was made in the lateral aspect of the forearm by puncturing at one arbitrary site with the device. After the incision, we blotted the blood every 30 s with filter paper until the bleeding reached hemostasis and recorded the time from the puncture to the end of bleeding. When the time to hemostasis exceeded 10 min, it was recorded as such, ending the observation. […] Baseline BT was measured on the day of admission at approximately the same time of day as the BT evaluations on Day 3 and Day 8, 3 hours after the administration of study drug(s).
(§4) For the primary endpoint analysis, a logarithmically converted value of BT for each sample was the dependent variable in a linear mixed model with fixed and random effects.
In a further data set the test system is blood coagulation. As to the kind of experiment: Activated partial thromboplastin time (aPTT), HemosIL SynthASil reagent. Format: in vivo, human. The following applies: 30 mg edoxaban, Day 3. As to the method:
(§1) Blood was collected in a vacuum blood collection tube containing 3.2% sodium citrate, and the schedule for the blood sample collection is shown in Table 1. Blood coagulation marker PT was measured by PT reagent Thrombocheck-PT in system CS-200i (Sysmex Corporation, Japan); aPTT by aPTT reagent HemosIL SynthASil in system ACL TOP Base (IL, Japan; Instrumentation Laboratory, USA) and F1 + 2 by ELISA Enzygnost F1 + 2 monoclonal reagent in system Behring ELISA Processor III and DiaSorin (BIT Analytical Instruments GmbH, Germany). These assays were carried out at LSI Medience Corporation (Tokyo, Japan). We measured PRU with VerifyNow system (Instrumentation Laboratory, Bedford, MA, USA) at Sumida Hospital.

The subject of the next data set is platelet aggregation. As to the kind of experiment: P2Y12 reaction units (PRU), VerifyNow system. It is filed as in vivo, human. The settings on record: 30 mg edoxaban alone, Day 3. As to the method:
as §1

The nature of data set [2]: Plasma edoxaban pharmacokinetics (LC-MS/MS, noncompartmental analysis). The settings on record: 30 mg edoxaban alone, Day 3; for AUC / Cmax / Tmax: male, human, in vivo, 30 mg; for AUC: AUCtau,ss of edoxaban; for Cmax: Cmax,ss of edoxaban; for Tmax: tmax,ss of edoxaban. As to the method:
Plasma samples were obtained by centrifugation, and the samples were immediately frozen at − 20 °C or lower.
Summary statistics were calculated for baseline and postdose values for the primary endpoint of BT and secondary endpoints of PD indices (PT, aPTT, F1 + 2, PRU) for each target population. […] 8.1 based on Model 1200 (Extravascular). AUCtau,ss was calculated by the linear-Log trapezoidal method.
For the secondary endpoints analysis, we used the logarithmically converted PK parameters (Cmax,ss, AUCtau,ss, tmax,ss) as dependent variables in a linear mixed model with fixed and variable effects.

The subject of data set [3] is healthy elderly Japanese male subjects. As to the kind of experiment: Bleeding time (BT) by the Ivy method. The following applies: 30 mg edoxaban once daily for 3 days, Day 3, 3 h after administration.
Description: as §2, §3, §4
For data set [4] the test system is unchanged. As to the kind of experiment: Safety: adverse events in the clinical pharmacology study. The following applies: 30 mg edoxaban alone, 24 participants.

Regarding `CC(=O)Oc1cc2c(s1)CCN(C(C(=O)C1CC1)c1ccccc1F)C2` (stereo not drawn) [prasugrel], in data set [1], the “Dose dependence of the effect of prasugrel on BT” value is given as “dose-dependent”.
The AUC is concentration integrated over time. What is called Cmax is the maximum level reached in the sampled fluid or tissue. Broadly, the Tmax is the time at which the peak concentration occurs. In the case of `CN1CCc2nc(C(=O)N[C@@H]3C[C@@H](C(=O)N(C)C)CC[C@@H]3NC(=O)C(=O)Nc3ccc(Cl)cn3)sc2C1` [Edoxaban, edoxaban], the “aPTT, mean” value in the data set on blood coagulation (Group 1, baseline 31.9) turned out to be 38.0 s; in the data set on blood coagulation (Group 2, baseline 34.2), 39.9 s. Moreover, the “Effect on PRU” value in the data set with platelet aggregation is given as “essentially had no effect”. For the same molecule, in data set [2] (Group 2, n = 12), the “tmax,ss of edoxaban, Mean (SD)” value was 1.0 (0.84) h. Further, the AUC in data set [2] (Mean (SD), Group 1, n = 12) came to 1060 ng·h/mL; in data set [2] (Mean (SD), Group 2, n = 12), 1070 ng·h/mL; in data set [2] (Median (IQR), Group 1, n = 12), 1020 ng·h/mL; in data set [2] (Median (IQR), Group 2, n = 12), 992 ng·h/mL. In addition, the Cmax came out at 216 ng/mL in data set [2] (Mean (SD), Group 1, n = 12); 191 ng/mL in data set [2] (Mean (SD), Group 2, n = 12); 200 ng/mL in data set [2] (Median (IQR), Group 1, n = 12); 170 ng/mL in data set [2] (Median (IQR), Group 2, n = 12). Besides, the Tmax in data set [2] (Mean (SD), Group 1, n = 12) was determined as 72 min; in data set [2] (Median (IQR), Group 1, n = 12), 45 min; in data set [2] (Median (IQR), Group 2, n = 12), 30 min. The “Bleeding time, Mean (SD)” value in data set [3] (Group 1, n = 12) is on record as 3.5 (0.6) min; in data set [3] (Group 2, n = 12), 4.7 (1.6) min. Besides, the “Bleeding time, Median (IQR)” value in data set [3] (Group 1, n = 12) is on record as 3.5 (3.0–4.0) min; in data set [3] (Group 2, n = 12), 4.5 (3.3–6.0) min. Moreover, the “Positive results in the fecal occult blood test (number)” value in data set [4] was “four”.

Values taken from article PMC7291522 (Thrombosis Journal, 2020).
